Results reported in publication PMC8205603, “Simultaneous Quantification of Pioglitazone and Omarigliptin in Rat Plasma by UHPLC-MS/MS and Its Application to Pharmacokinetic Study after Coadministration of the Two Drugs” (Journal of Analytical Methods in Chemistry, 2021).
Structures can show the parent of a compound that is named as a salt. Where two headings read alike, the source gives them in different places. Each block holds one compound with its values, some of them ahead of it.

Key:
[1] = Pharmacokinetics study in rats after single or combined intragastric administration; format: in vivo, Sprague-Dawley rats; conditions: plasma, male SD rats
Protocol: Fifteen male Sprague-Dawley rats (6-8 weeks old, 190-210 g) were purchased from Jinan Pengyue Laboratory Animal Technology Co., Ltd. (Jinan, China). The animal certification number was 3707262011004044 and the production license number was SCXK (Lu) 20190003. Before the formal experiment, all rats were adaptively fed for one week at a temperature of 24 ± 2°C and a humidity of 55 ± 5% and then were randomly divided into three groups. In order to guarantee animal welfare, Animal Experiments Guidelines of Yantai Institute of Materia Medica (Yantai, China) was enforced. Pioglitazone and omarigliptin were suspended into 0.5% carboxymethyl cellulose sodium salt (CMC-Na) for intragastric administration. The dosage for rats was calculated based on the clinical dose. […] About 200 μL whole blood was collected into the heparinized tube at 0 min (pre-dose), 15 min, 30 min, 1 […], and 48 h and centrifugated immediately to collect plasma. All plasma samples were frozen at -20°C until analysis. Samples were processed and analyzed by the validated method. Data were acquired and analyzed by Xcalibur 4.1 software (Thermo Fisher Scientific, Massachusetts, USA). Pharmacokinetic parameters were calculated based on noncompartmental model using Phoenix WinNonlin 7.0 (Pharsight, Mountain View, CA). All data were shown as mean ± SD.

[2] = Stability of QC samples in rat plasma under different storage conditions; format: physicochemical; conditions: n = 5
Protocol: Different concentrations of working solutions were diluted 20 times with blank rat plasma to prepare corresponding calibration samples. Final concentrations of calibration samples were 5, 25, 50, 100, 250, 500, 1000, and 2000 ng/mL for pioglitazone and 10, 50, 100, 200, 500, 1000, 2000, and 4000 ng/mL for omarigliptin. Quality control (QC) samples (5, 15, 400, 1500 ng/mL for pioglitazone and 10, 30, 800, 3000 ng/mL for omarigliptin) were prepared as the same way. All plasma samples were stored at −20°C until analysis.
QC samples with low, medium, and high concentrations were analyzed under different conditions, such as kept at room temperature for 6 h, frozen and thawed for three cycles, and frozen at −20°C for 7 days. The postextraction samples were stored in autosampler at 10°C for 24 hours and then reinjected to evaluate the autosampler stability. The measured concentrations were calculated according to the following standard curve. RE (%) and RSD (%) should be within ±15%.

[3] = male, Sprague-Dawley, rat, po, 2.6 mg/kg, omarigliptin 2.6 mg/kg in combination with pioglitazone 2.6 mg/kg, intragastric, n = 5
[4] = male, Sprague-Dawley, rat, po, 2.6 mg/kg, omarigliptin 2.6 mg/kg intragastric, single administration, n = 5
[5] = Auto-sampler stability (10°C for 24 h), postextraction samples, nominal 30 ng/mL omarigliptin
[6] = Auto-sampler stability (10°C for 24 h), postextraction samples, nominal 800 ng/mL omarigliptin
[7] = Auto-sampler stability (10°C for 24 h), postextraction samples, nominal 3000 ng/mL omarigliptin
[8] = Freeze (−20°C for 7 days), rat plasma, nominal 30 ng/mL omarigliptin
[9] = Freeze (−20°C for 7 days), rat plasma, nominal 800 ng/mL omarigliptin
[10] = Freeze (−20°C for 7 days), rat plasma, nominal 3000 ng/mL omarigliptin
[11] = Room temperature for 6 h, rat plasma, nominal 30 ng/mL omarigliptin
[12] = Room temperature for 6 h, rat plasma, nominal 800 ng/mL omarigliptin
[13] = Room temperature for 6 h, rat plasma, nominal 3000 ng/mL omarigliptin
[14] = Three freeze-thaw cycles, rat plasma, nominal 30 ng/mL omarigliptin
[15] = Three freeze-thaw cycles, rat plasma, nominal 800 ng/mL omarigliptin
[16] = Three freeze-thaw cycles, rat plasma, nominal 3000 ng/mL omarigliptin
[17] = male, Sprague-Dawley, rat, po, 2.6 mg/kg, pioglitazone 2.6 mg/kg in combination with omarigliptin 2.6 mg/kg, intragastric, n = 5
[18] = male, Sprague-Dawley, rat, po, 2.6 mg/kg, pioglitazone 2.6 mg/kg intragastric, single administration, n = 5
[19] = Auto-sampler stability (10°C for 24 h), postextraction samples, nominal 15 ng/mL pioglitazone
[20] = Auto-sampler stability (10°C for 24 h), postextraction samples, nominal 400 ng/mL pioglitazone
[21] = Auto-sampler stability (10°C for 24 h), postextraction samples, nominal 1500 ng/mL pioglitazone
[22] = Freeze (−20°C for 7 days), rat plasma, nominal 15 ng/mL pioglitazone
[23] = Freeze (−20°C for 7 days), rat plasma, nominal 400 ng/mL pioglitazone
[24] = Room temperature for 6 h, rat plasma, nominal 15 ng/mL pioglitazone
[25] = Room temperature for 6 h, rat plasma, nominal 400 ng/mL pioglitazone
[26] = Room temperature for 6 h, rat plasma, nominal 1500 ng/mL pioglitazone
[27] = Three freeze-thaw cycles, rat plasma, nominal 15 ng/mL pioglitazone
[28] = Three freeze-thaw cycles, rat plasma, nominal 400 ng/mL pioglitazone
[29] = Three freeze-thaw cycles, rat plasma, nominal 1500 ng/mL pioglitazone

- AUC(0-inf) [1, 3]: 31300 ± 3820 ng·h/mL
- AUC(0-t) [1, 3]: 30400 ± 3760 ng·h/mL
- Cmax [1, 3]: 2520 ± 435 ng/mL
- Tmax ([1]; male, Sprague-Dawley, rat, po, 2.6 mg/kg, omarigliptin 2.6 mg/kg in combination with pioglitazone 2.6 mg/kg, intragastric, n = 5, read-out: t max): 1.8 ± 0.4 h
- AUC(0-inf) [1, 4]: 37700 ± 4100 ng·h/mL
- AUC(0-t) [1, 4]: 36600 ± 4060 ng·h/mL
- Cmax [1, 4]: 3000 ± 394 ng/mL
- Tmax ([1]; male, Sprague-Dawley, rat, po, 2.6 mg/kg, omarigliptin 2.6 mg/kg intragastric, single administration, n = 5, read-out: t max): 1.5 ± 0.7 h
- t 1/2 ([1]; omarigliptin 2.6 mg/kg intragastric, single administration, n = 5): 10.9 ± 0.5 h
- Accuracy (RE %) [2, 5]: 6.70%
- Measured concentrations [2, 5]: 32.01 ± 2.13 ng/mL
- Accuracy (RE %) [2, 6]: −4.69%
- Measured concentrations [2, 6]: 762.47 ± 4.84 ng/mL
- Accuracy (RE %) [2, 7]: −0.09%
- Measured concentrations [2, 7]: 2997.38 ± 9.39 ng/mL
- Accuracy (RE %) [2, 8]: −4.79%
- Measured concentrations [2, 8]: 28.56 ± 0.11 ng/mL
- Accuracy (RE %) [2, 9]: 0.28%
- Measured concentrations [2, 9]: 802.26 ± 4.01 ng/mL
- Accuracy (RE %) [2, 10]: −10.36%
- Measured concentrations [2, 10]: 2689.12 ± 45.57 ng/mL
- Accuracy (RE %) [2, 11]: 0.05%
- Measured concentrations [2, 11]: 30.01 ± 0.40 ng/mL
- Accuracy (RE %) [2, 12]: −7.74%
- Measured concentrations [2, 12]: 738.06 ± 4.52 ng/mL
- Accuracy (RE %) [2, 13]: −2.07%
- Measured concentrations [2, 13]: 2937.89 ± 7.68 ng/mL
- Accuracy (RE %) [2, 14]: −5.13%
- Measured concentrations [2, 14]: 28.46 ± 0.25 ng/mL
- Accuracy (RE %) [2, 15]: −0.68%
- Measured concentrations [2, 15]: 794.54 ± 9.37 ng/mL
- Accuracy (RE %) [2, 16]: −10.98%
- Measured concentrations [2, 16]: 2670.56 ± 16.54 ng/mL
SMILES: CS(=O)(=O)n1cc2c(n1)CN([C@H]1CO[C@H](c3cc(F)ccc3F)[C@@H](N)C1)C2 [Omarigliptin]

- AUC(0-inf) [1, 17]: 19000 ± 2600 ng·h/mL
- AUC(0-t) [1, 17]: 19000 ± 2580 ng·h/mL
- Cmax [1, 17]: 2460 ± 754 ng/mL
- half-life [1, 17]: 126 ± 12 min
- AUC(0-inf) [1, 18]: 17000 ± 2130 ng·h/mL
- AUC(0-t) [1, 18]: 16900 ± 2210 ng·h/mL
- Cmax [1, 18]: 2550 ± 475 ng/mL
- half-life [1, 18]: 168 ± 60 min
- Tmax ([1]; male, Sprague-Dawley, rat, po, 2.6 mg/kg, pioglitazone 2.6 mg/kg intragastric, single administration, n = 5, read-out: t max): 1.8 ± 0.4 h
- Tmax ([1]; pioglitazone 2.6 mg/kg in combination with omarigliptin 2.6 mg/kg, intragastric, n = 5): 2.0 ± 0 h
- Accuracy (RE %) [2, 19]: 3.95%
- Measured concentrations [2, 19]: 15.59 ± 1.05 ng/mL
- Accuracy (RE %) [2, 20]: −9.17%
- Measured concentrations [2, 20]: 363.31 ± 1.73 ng/mL
- Accuracy (RE %) [2, 21]: −5.24%
- Measured concentrations [2, 21]: 1421.47 ± 7.30 ng/mL
- Accuracy (RE %) [2, 22]: −8.77%
- Measured concentrations [2, 22]: 13.68 ± 0.10 ng/mL
- Accuracy (RE %) [2, 23]: 0.24%
- Measured concentrations [2, 23]: 400.95 ± 1.64 ng/mL
- Measured concentrations ([2]; Freeze (−20°C for 7 days), rat plasma, nominal 1500 ng/mL pioglitazone): 1328.31 ± 5.99 ng/mL
- Accuracy (RE %) [2, 24]: −4.62%
- Measured concentrations [2, 24]: 14.31 ± 0.34 ng/mL
- Accuracy (RE %) [2, 25]: −9.56%
- Measured concentrations [2, 25]: 361.75 ± 1.91 ng/mL
- Accuracy (RE %) [2, 26]: −5.41%
- Measured concentrations [2, 26]: 1418.82 ± 5.26 ng/mL
- Accuracy (RE %) [2, 27]: −8.12%
- Measured concentrations [2, 27]: 13.78 ± 0.11 ng/mL
- Accuracy (RE %) [2, 28]: 0.52%
- Measured concentrations [2, 28]: 402.08 ± 1.11 ng/mL
- Accuracy (RE %) [2, 29]: −11.10%
- Measured concentrations [2, 29]: 1333.57 ± 7.61 ng/mL
SMILES: CCc1ccc(CCOc2ccc(CC3SC(=O)NC3=O)cc2)nc1 (stereo not drawn) [Pioglitazone, Pioglitazone hydrochloride]
